What follows are molecules tested against T1, HIV-integrase (Human immunodeficiency virus type 1 group M subtype B, UniProt P04585) (assay: in-vitro activity against HIV-integrase (HIV Integrase Inhibition, SPA bead assay)). Conditions: Table 1; recombinant integrase, activity class.
T1 construct: Recombinant integrase (0.26 ng) was incubated with the beads
Format: biochemical
Procedure: To evaluate in-vitro activity against HIV-integrase, 5 pmole of biotin labeled substrate DNA was bound to 100 μg of Streptavidin coated PVT SPA beads (Amersham Pharmacia Biotech). Recombinant integrase (0.26 ng) was incubated with the beads for 90 min at 37° C. Unbound enzyme was removed by washing the complex followed by addition of inhibitors and […] of P33 labeled target DNA. The reaction was stopped by adding EDTA to a final concentration of 10 mM. Samples were counted in TopCountNXT (Packard) and the CPM was used as a measure of integration. The reaction condition was as described in Engelman, A. and Craigie, R. J. Vitrol. 1996, 69, 5908. The sequences of substrate and target DNA were described in Nucleic Acid Research 1994, 22, 1121.
In the case of `COc1ccc(CNC(=O)c2nc3n(c(=O)c2O)CCCC32CCC2)c(OC)c1` [Example 71, N-[(2,4-dimethoxyphenyl)methyl]-7′,8′-dihydro-3′-hydroxy-4′-oxo-spiro[cyclobutane-1,9′(6′H)-[4H]pyrido[1,2-α]pyrimidine]-2′-carboxamide], the IC50 is reported as 10 to 100 nM. `Cc1ccc(CNC(=O)c2nc3n(c(=O)c2O)CCOC32CCCC2)cc1F` [Example 27, N-[(3-fluoro-4-methylphenyl)methyl]-6′,7′-dihydro-3′-hydroxy-4′-oxo-spiro[cyclopentane-1,9′(4′H)-pyrimido[2,1-c][1,4]oxazine]-2′-carboxamide] was tested, and the IC50 was 1 to 10 nM. `O=C(NCc1ccc(F)cc1N1CCCCS1(=O)=O)c1nc2n(c(=O)c1O)CCOC21CCOCC1` [Example 42, N-[[4-fluoro-2-(tetrahydro-1,1-dioxido-2H-1,2-thiazin-2-yl)phenyl]methyl]-2,3,5,6,6′,7′-hexahydro-3′-hydroxy-4′-oxo-spiro[4H-pyran-4,9′(4′H)-pyrimido[2,1-c][1,4]oxazine]-2′-carboxamide] was tested, and the IC50 was 1 to 10 nM. `Cc1ccc(CNC(=O)c2nc3n(c(=O)c2O)CCCC32CCC2)cc1C` [Example 69, N-[(3,4-dimethylphenyl)methyl]-7′,8′-dihydro-3′-hydroxy-4′-oxo-spiro[cyclobutane-1,9′(6′H)-[4H]pyrido[1,2-α]pyrimidine]-2′-carboxamide] showed an IC50 of 1 to 10 nM. Molecule `COc1ccc(CNC(=O)c2nc3n(c(=O)c2O)CCCC32CCC2)cc1` [Example 64, N-[(4-methoxyphenyl)methyl]-7′,8′-dihydro-3′-hydroxy-4′-oxo-spiro[cyclobutane-1,9′(6H)^1-[4H]pyrido[1,2-α]pyrimidine]-2′-carboxamide] has an IC50 of 10 to 100 nM. `O=C(NCc1ccccc1)c1nc2n(c(=O)c1O)CCCC21CCC1` [Example 62, N-(phenylmethyl)-7′,8′-dihydro-3′-hydroxy-4′-oxo-spiro[cyclobutane-1,9′(6′H)-[4H]pyrido[1,2-α]pyrimidine]-2′-carboxamide] was tested, and the IC50 was 1 to 10 nM. With `CSc1cc(F)ccc1CNC(=O)c1nc2n(c(=O)c1O)CCOC21CCCC1` [Example 18, N-[[4-fluoro-2-(methylthio)phenyl]methyl]-6′,7′-dihydro-3′-hydroxy-4′-oxo-spiro[cyclopentane-1,9′(4′H)-pyrimido[2,1-c][1,4]oxazine]-2′-carboxamide] the IC50 was 1 to 10 nM. Work on `O=C(NCc1ccccc1N1CCCCS1(=O)=O)c1nc2n(c(=O)c1O)CCOC21CCOCC1` [Example 43, N-[[2-(tetrahydro-1,1-dioxido-2H-1,2-thiazin-2-yl)phenyl]methyl]-2,3,5,6,6′,7′-hexahydro-3′-hydroxy-4′-oxo-spiro[4H-pyran-4,9′(4′H)-pyrimido[2,1-c][1,4]oxazine]-2′-carboxamide] yielded an IC50 of 10 to 100 nM. `O=C(NCc1ccc(F)cc1N1CCCCS1(=O)=O)c1nc2n(c(=O)c1O)CCCC21CCCC1` [Example 9, N-[[4-fluoro-2-(tetrahydro-1,1-dioxido-2H-1,2-thiazin-2-yl)phenyl]methyl]-7′,8′-dihydro-3′-hydroxy-4′-oxo-spiro[cyclopentane-1,9′(6′H)-[4H]pyrido[1,2-α]pyrimidine]-2′-carboxamide] gave an IC50 of 1 to 10 nM. Molecule `O=C(NCc1ccccc1N1CCCCS1(=O)=O)c1nc2n(c(=O)c1O)CCCC21CCC1` [Example 83, 7′,8′-dihydro-3′-hydroxy-4′-oxo-N-[[2-(tetrahydro-1,1-dioxido-2H-1,2-thiazin-2-yl)phenyl]methyl]-spiro[cyclobutane-1,9′(6′H)-[4H]pyrido[1,2-α]pyrimidine]-2′-carboxamide] has an IC50 of 10 to 100 nM. With `O=C(NCc1ccccc1F)c1nc2n(c(=O)c1O)CCCC21CCC1` [Example 68, N-[(2-fluorophenyl)methyl]-7′,8′-dihydro-3′-hydroxy-4′-oxo-spiro[cyclobutane-1,9′(6′H)-[4H]pyrido[1,2-α]pyrimidine]-2′-carboxamide] the IC50 was 10 to 100 nM. Work on `O=C(NCc1ccccc1N1CCCCS1(=O)=O)c1nc2n(c(=O)c1O)CCCC21CCCC1` [Example 8, N-[[2-(tetrahydro-1,1-dioxido-2H-1,2-thiazin-2-yl)phenyl]methyl]-7′,8′-dihydro-3′-hydroxy-4′-oxo-spiro[cyclopentane-1,9′(6′H)-[4H]pyrido[1,2-α]pyrimidine]-2′-carboxamide] yielded an IC50 of 10 to 100 nM. `Cc1ccc(CNC(=O)c2nc3n(c(=O)c2O)CCOC32CCCC2)cc1` [Example 19, 6′,7′-dihydro-3′-hydroxy-N-[(4-methylphenyl)methyl]-4′-oxo-spiro[cyclopentane-1,9′(4′H)-pyrimido[2,1-c][1,4]oxazine]-2′-carboxamide] gave an IC50 of 10 to 100 nM. In the case of `O=C(NCCc1ccc(F)cc1)c1nc2n(c(=O)c1O)CCOC21CCCC1` [Example 30, N-[2-(4-fluorophenyl)ethyl]-6′,7′-dihydro-3′-hydroxy-4′-oxo-spiro[cyclopentane-1,9′(4H)-pyrimido[2,1-c][1,4]oxazine]-2′-carboxamide], the IC50 is reported as 10 to 100 nM. `O=C(NCc1ccccc1-n1cncn1)c1nc2n(c(=O)c1O)CCOC21CCCC1` [Example 33, 6′,7′-dihydro-3′-hydroxy-4′-oxo-N-[[2-(1H-1,2,4-triazol-1-yl)phenyl]methyl]-spiro[cyclopentane-1,9′(4′H)-pyrimido[2,1-c][1,4]oxazine]-2′-carboxamide] gave an IC50 of 1 to 10 nM. `Cc1ccc(CNC(=O)c2nc3n(c(=O)c2O)CCCC32CCC2)cc1F` [Example 73, N-[(3-fluoro-4-methylphenyl)methyl]-7′,8′-dihydro-3′-hydroxy-4′-oxo-spiro[cyclobutane-1,9′(6′H)-[4H]pyrido[1,2-α]pyrimidine]-2′-carboxamide] was tested, and the IC50 was 1 to 10 nM. With `O=C(NCc1ccc(F)cc1-n1cncn1)c1nc2n(c(=O)c1O)CCC21CCCC1` [Example 87, N-[[4-fluoro-2-(1H-1,2,4-triazol-1-yl)phenyl]methyl]-6′,7′-dihydro-3′-hydroxy-4′-oxo-spiro[cyclopentane-1,8′(4′H)-pyrrolo[1,2-α]pyrimidine]-2′-carboxamide] the IC50 was 1 to 10 nM. `O=C(NCc1ccc(F)cc1N1CCCCS1(=O)=O)c1nc2n(c(=O)c1O)CCCC21CCC1` [Example 79, N-[[4-fluoro-2-(tetrahydro-1,1-dioxido-2H-1,2-thiazin-2-yl)phenyl]methyl]-7′,8′-dihydro-3′-hydroxy-4′-oxo-spiro[cyclobutane-1,9′(6′H)-[4H]pyrido[1,2-α]pyrimidine]-2′-carboxamide] was tested, and the IC50 was 1 to 10 nM. For `O=C(NCc1ccc(F)cc1)c1nc2n(c(=O)c1O)CCCC21CCOCC1` [Example 13, N-[(4-fluorophenyl)methyl]-2,3,5,6,7′,8′-hexahydro-3′-hydroxy-4′-oxo-spiro[4H-pyran-4,9′(6′H)-[4H]pyrido[1,2-a]pyrimidine]-2′-carboxamide], the IC50 was 1 to 10 nM.

Same assay, conditions: Table 1a; recombinant integrase, activity class
`Cc1nc(C)n(-c2cc(F)ccc2CNC(=O)c2nc3n(c(=O)c2O)CCOC32CCCC2)n1` [Example 130, Spiro[cyclopentane-1,9′(4′H)-pyrimido[2,1-c][1,4]oxazine]-2′-carboxamide, N-[[2-(3,5-dimethyl-1H-1,2,4-triazol-1-yl)-4-fluorophenyl]methyl]-6′,7′-dihydro-3′-hydroxy-4′-oxo-] showed an IC50 of 1 to 10 nM. In the case of `CN1CCn2c(nc(C(=O)NCc3ccc(F)cc3)c(O)c2=O)C12CCCCC2` [Example 95, Spiro[cyclohexane-1,9′(6′H)-[4H]pyrazino[1,2-a]pyrimidine]-2′-carboxamide, N-[(4-fluorophenyl)methyl]-7′,8′-dihydro-3′-hydroxy-8′-methyl-4′-oxo-], the IC50 is reported as 1 to 10 nM. Work on `CN1CCn2c(nc(C(=O)NCc3ccc(F)cc3)c(O)c2=O)C12CCC2` [Example 98, Spiro[cyclobutane-1,9′(6′H)-[4H]pyrazino[1,2-a]pyrimidine]-2′-carboxamide, N-[(4-fluorophenyl)methyl]-7′,8′-dihydro-3′-hydroxy-8′-methyl-4′-oxo-] yielded an IC50 of 1 to 10 nM. In the case of `Cc1ncn(-c2cc(F)ccc2CNC(=O)c2nc3n(c(=O)c2O)CCOC32CCCC2)n1` [Example 129, Spiro[cyclopentane-1,9′(4′H)-pyrimido[2,1-c][1,4]oxazine]-2′-carboxamide, N-[[4-fluoro-2-(3-methyl-1H-1,2,4-triazol-1-yl)phenyl]methyl]-6′,7′-dihydro-3′-hydroxy-4′-oxo-], the IC50 is reported as 1 to 10 nM. `CC(C)(C)c1cn(-c2cc(F)ccc2CNC(=O)c2nc3n(c(=O)c2O)CCOC32CCC2)nn1` [Example 103, Spiro[cyclobutane-1,9′(4′H)-pyrimido[2,1-c][1,4]oxazine]-2′-carboxamide, N-[[2-[4-(1,1-dimethylethyl)-1H-1,2,3-triazol-1-yl]-4-fluorophenyl]methyl]-6′,7′-dihydro-3′-hydroxy-4′-oxo-] showed an IC50 of 10 to 100 nM. Work on `CN1CCn2c(nc(C(=O)NCc3ccc(F)cc3)c(O)c2=O)C12CCCC2` [Example 92, Spiro[cyclopentane-1,9′(6′H)-[4H]pyrazino[1,2-a]pyrimidine]-2′-carboxamide, N-[(4-fluorophenyl)methyl]-7′,8′-dihydro-3′-hydroxy-8′-methyl-4′-oxo-] yielded an IC50 of 1 to 10 nM. `O=C(NCc1ccc(F)cc1N1CCOC1=O)c1nc2n(c(=O)c1O)CCOC21CCC1` [Example 105, Spiro[cyclobutane-1,9′(4′H)-pyrimido[2,1-c][1,4]oxazine]-2′-carboxamide, N-[[4-fluoro-2-(2-oxo-3-oxazolidinyl)phenyl]methyl]-6′,7′-dihydro-3′-hydroxy-4′-oxo-] was tested, and the IC50 was 1 to 10 nM. `CN1CCn2c(nc(C(=O)NCc3ccc(F)cc3-n3cncn3)c(O)c2=O)C12CCCC2` [Example 93, Spiro[cyclopentane-1,9′(6′H)-[4H]pyrazino[1,2-a]pyrimidine]-2′-carboxamide, N-[[4-fluoro-2-(1H-1,2,4-triazol-1-yl)phenyl]methyl]-7′,8′-dihydro-3′-hydroxy-8′-methyl-4′-oxo-] gave an IC50 of 1 to 10 nM.

Source: patent publication US7419969B2 (Bristol-Myers Squibb Company, priority 2004, dated 2008)
